The values below come from ChEMBL document CHEMBL3217573, “Diacrylamides as selective G-quadruplex ligands in in vitro and in vivo assays” (Medchemcomm, 2011).

Structures are written as SMILES. pIC50, pKd: −log10 of the molar value. Active and inactive are the calls of the source. The calls are words filed in the database; no cut-off is given here.

A short description of assay [1]: Displacement of thiazole orange from ds26 DNA (unknown origin) preincubated for 10 mins measured after 3 mins by fluorescence spectra analysis.
For a further assay, the system named is unidentified. The experiment in a line: Selectivity ratio of ligand concentration required to displace thiazole orange from 22AG DNA (unknown origin) to same extent as percentage displacement from ds26 DNA (unknown origin) at 2.5 uM of compound.
Assay [2] in a line: Displacement of thiazole orange from 22AG DNA (unknown origin) preincubated for 10 mins measured after 3 mins by fluorescence spectra analysis.
The subject of assay [3] is MCF7. As to the kind of experiment: Induction of apoptosis in human MCF7 cells after 48 hrs by MTT assay. Type of assay: functional, cell-based. For orientation: Tetrazolium dyes change colour on reduction, which living cells bring about.
For another assay, the system named is Caco-2. As to the kind of experiment: Induction of apoptosis in human Caco2 cells after 48 hrs by MTT assay. Type of assay: functional, cell-based.
Assay [4] deals with MCF7. As to the kind of experiment: Cytotoxicity against human MCF7 cells assessed as reduction of cell viability after 10 days by MTT assay. Type of assay: functional, cell-based. The settings on record: MCF7, 240 h.
For assay [5], the system named is MCF7. The experiment in a line: Cytotoxicity against human MCF7 cells assessed as reduction of cell viability after 10 days by MTT assay relative to control. Type of assay: functional.
The subject of assay [6] is MCF7. As to the kind of experiment: Cytotoxicity against human MCF7 cells assessed as reduction of cell viability at 2.5 uM after 24 hrs by MTT assay. Type of assay: functional.

As a reminder, the pKd is the negative decadic logarithm of the Kd, by convention in mol/L. On to `O=C(/C=C/c1c2ccccc2c(/C=C/C(=O)NC(CO)(CO)CO)c2ccccc12)NC(CO)(CO)CO`, for which the negative logarithm of the Kd (pKd) in assay [1] is 4.65. Moreover, in the assay on unidentified, the Selectivity ratio came to 0.

For `COc1ccc2cc3[n+](cc2c1OC)CCc1cc2c(cc1-3)OCO2` [BERBERINE], the results for the pKd in assay [1] and in assay [2] were 5.75 and 3.66, respectively. Besides, in the assay with unidentified, the Selectivity ratio was 0.1.

A word on the pIC50: it is −log10 of the IC50, conventionally taken in molar units. For `NC(=O)/C=C/c1c2ccccc2c(/C=C/C(N)=O)c2ccccc12`, the negative-log Kd (pKd) in assay [1] is 5.68; in assay [2], 7.52. Also, the result in the assay with MCF7 [3] and in the assay on Caco-2 was inactive. Further, the negative logarithm of the IC50 (pIC50) in the assay with MCF7 [4] is 5.60. Also, the Selectivity ratio with unidentified was 33.3. The Activity in the assay with MCF7 [5] is over 80%.

Consider `CC(=O)CC(C)(C)NC(=O)/C=C/c1c2ccccc2c(/C=C/C(=O)NC(C)(C)CC(C)=O)c2ccccc12`, for which the negative logarithm of the Kd (pKd) in assay [1] is 6.44; in assay [2] it was 7.15. For the same molecule, in the assay with unidentified, the Selectivity ratio stood at 5.6.

Consider `O=C(/C=C/c1c2ccccc2c(Br)c2ccccc12)N1CCOCC1`, for which the negative-log Kd (pKd) in assay [1] was 5.75; in assay [2], 6.77. For the same molecule, the Selectivity ratio in the assay on unidentified was 5.

With `O=C(/C=C/c1c2ccccc2c(/C=C/C(=O)N2CCOCC2)c2ccccc12)N1CCOCC1`, the pKd is 6.54 in assay [1] and 4.70 in assay [2]. The Activity in the assay with MCF7 [6] was 40%. Besides, in the assay with unidentified, the Selectivity ratio is 0.
